Test results from PMC8534050, “Discovery of a Potent and Highly Isoform-Selective Inhibitor of the Neglected Ribosomal Protein S6 Kinase Beta 2 (S6K2)” (Cancers, 2021).

What was measured:
SLK = molecular target: T1, SLK (Homo sapiens, UniProt Q9H2G2); assay: DSF thermal shift assay; type: binding; details: SLK; inhibitor 10 μM, protein 2 μM; read-out: ΔTm
T1 construct: purchased in-house DSF (thermal shift) panel per Fedorov et al
Experimental: (§1) Differences in the melting temperature (ΔTm) were measured as described by Fedorov et al.. Purified proteins were buffered in 25 mM HEPES (pH 7.5), 500 mM NaCl and were assayed in a 384-well plate with a final protein concentration of 2 μM in 10 μL assay volume. Inhibitors were added to a final concentration of 10 μM using an ECHO 550 acoustic dispenser (Labcyte, San José, CA, USA). As a fluorescence probe, SYPRO-Orange (Molecular Probes, Eugene, OR, USA) was added in a 1:5000 dilution. Filters for excitation and emission were set to 465 nm and 590 nm, respectively. The temperature was increased from 25 °C with 3 °C/min to a final temperature of 95 °C, while scanning, using the QuantStudio5 (Applied Biosystems, Waltham, MA, USA). Data were analyzed through Boltzmann equation in the Protein Thermal Shift software (Applied Biosystems, Waltham, MA, USA). Samples were measured in technical duplicates.

MAPK6 = molecular target: T2, MAPK6 (Homo sapiens, UniProt Q16659); assay: DSF thermal shift assay; type: binding; details: MAPK6; inhibitor 10 μM, protein 2 μM; read-out: ΔTm
T2 construct: purchased in-house DSF (thermal shift) panel per Fedorov et al
Experimental: as §1

CAMKK2 = molecular target: T3, CAMKK2 (Homo sapiens, UniProt Q96RR4); assay: DSF thermal shift assay; type: binding; details: CAMKK2; inhibitor 10 μM, protein 2 μM; read-out: ΔTm
T3 construct: purchased in-house DSF (thermal shift) panel per Fedorov et al
Experimental: as §1

PAK1 = molecular target: T4, PAK1 (Homo sapiens, UniProt Q13153); assay: DSF thermal shift assay; type: binding; details: PAK1; inhibitor 10 μM, protein 2 μM; read-out: ΔTm
T4 construct: purchased in-house DSF (thermal shift) panel per Fedorov et al
Experimental: as §1

MERTK = molecular target: T5, MERTK (Homo sapiens, UniProt Q12866); assay: DSF thermal shift assay; type: binding; details: MERTK; inhibitor 10 μM, protein 2 μM; read-out: ΔTm
T5 construct: purchased in-house DSF (thermal shift) panel per Fedorov et al
Experimental: as §1

STK39 = molecular target: T6, STK39 (Homo sapiens, UniProt Q9UEW8); assay: DSF thermal shift assay; type: binding; details: STK39; inhibitor 10 μM, protein 2 μM; read-out: ΔTm
T6 construct: purchased in-house DSF (thermal shift) panel per Fedorov et al; IC50 follow-up at Reaction Biology Corp
Experimental: as §1

CAMK4 = molecular target: T7, CAMK4 (Homo sapiens, UniProt Q16566); assay: DSF thermal shift assay; type: binding; details: CAMK4; inhibitor 10 μM, protein 2 μM; read-out: ΔTm
T7 construct: purchased in-house DSF (thermal shift) panel per Fedorov et al
T7 sequence (Q16566 whole entry): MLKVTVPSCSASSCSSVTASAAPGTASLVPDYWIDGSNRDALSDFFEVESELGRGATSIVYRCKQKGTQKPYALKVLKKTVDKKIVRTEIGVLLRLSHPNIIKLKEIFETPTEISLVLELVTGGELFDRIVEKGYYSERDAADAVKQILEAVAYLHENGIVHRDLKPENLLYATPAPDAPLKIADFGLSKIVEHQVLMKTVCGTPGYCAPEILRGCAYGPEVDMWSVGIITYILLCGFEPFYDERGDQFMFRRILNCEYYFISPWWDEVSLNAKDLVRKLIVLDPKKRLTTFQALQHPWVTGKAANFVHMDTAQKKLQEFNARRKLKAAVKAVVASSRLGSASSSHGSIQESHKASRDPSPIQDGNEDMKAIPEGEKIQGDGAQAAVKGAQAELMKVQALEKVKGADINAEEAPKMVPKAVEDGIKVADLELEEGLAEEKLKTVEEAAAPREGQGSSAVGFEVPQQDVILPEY
Experimental: as §1

OSR1 = molecular target: T8, OSR1 (Homo sapiens, UniProt O95747); assay: DSF thermal shift assay; type: binding; details: OSR1; inhibitor 10 μM, protein 2 μM; read-out: ΔTm
T8 construct: purchased in-house DSF (thermal shift) panel per Fedorov et al
Experimental: as §1

EPHA7 = molecular target: T9, EPHA7 (Homo sapiens, UniProt Q15375); assay: DSF thermal shift assay; type: binding; details: EPHA7; inhibitor 10 μM, protein 2 μM; read-out: ΔTm
T9 construct: purchased in-house DSF (thermal shift) panel per Fedorov et al
Experimental: as §1

WNK1 = molecular target: T10, WNK1 (Homo sapiens, UniProt Q9H4A3); assay: DSF thermal shift assay; type: binding; details: WNK1; inhibitor 10 μM, protein 2 μM; read-out: ΔTm
T10 construct: purchased in-house DSF (thermal shift) panel per Fedorov et al
Experimental: as §1

DCAMKL1 = molecular target: T11, DCAMKL1 (Homo sapiens, UniProt O15075); assay: DSF thermal shift assay; type: binding; details: DCAMKL1; inhibitor 10 μM, protein 2 μM; read-out: ΔTm
T11 construct: purchased in-house DSF (thermal shift) panel per Fedorov et al
T11 sequence (O15075 whole entry): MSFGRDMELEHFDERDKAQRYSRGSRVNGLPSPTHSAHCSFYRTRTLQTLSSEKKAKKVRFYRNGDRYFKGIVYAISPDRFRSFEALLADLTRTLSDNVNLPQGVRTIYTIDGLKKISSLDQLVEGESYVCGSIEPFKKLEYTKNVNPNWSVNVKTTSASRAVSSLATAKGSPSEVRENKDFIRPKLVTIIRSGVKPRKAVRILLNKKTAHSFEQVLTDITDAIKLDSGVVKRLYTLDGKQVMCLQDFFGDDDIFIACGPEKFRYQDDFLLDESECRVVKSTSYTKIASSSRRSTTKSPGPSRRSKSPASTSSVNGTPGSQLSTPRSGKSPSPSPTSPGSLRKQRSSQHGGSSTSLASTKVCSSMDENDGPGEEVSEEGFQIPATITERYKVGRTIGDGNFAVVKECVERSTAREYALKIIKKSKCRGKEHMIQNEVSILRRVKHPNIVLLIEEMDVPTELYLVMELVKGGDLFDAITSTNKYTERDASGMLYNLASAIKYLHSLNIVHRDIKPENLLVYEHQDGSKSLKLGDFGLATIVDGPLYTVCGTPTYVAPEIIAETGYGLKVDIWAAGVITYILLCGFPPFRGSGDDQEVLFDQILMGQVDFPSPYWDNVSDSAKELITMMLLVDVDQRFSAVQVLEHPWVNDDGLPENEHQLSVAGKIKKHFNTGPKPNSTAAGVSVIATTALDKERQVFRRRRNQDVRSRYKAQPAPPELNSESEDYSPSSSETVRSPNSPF
Experimental: as §1

PLK4 = molecular target: T12, PLK4 (Homo sapiens, UniProt O00444); assay: DSF thermal shift assay; type: binding; details: PLK4; inhibitor 10 μM, protein 2 μM; read-out: ΔTm
T12 construct: purchased in-house DSF (thermal shift) panel per Fedorov et al
Experimental: as §1

MAPK13 = molecular target: T13, MAPK13 (Homo sapiens, UniProt O15264); assay: DSF thermal shift assay; type: binding; details: MAPK13; inhibitor 10 μM, protein 2 μM; read-out: ΔTm
T13 construct: purchased in-house DSF (thermal shift) panel per Fedorov et al
Experimental: as §1

DAPK1 = molecular target: T14, DAPK1 (Homo sapiens, UniProt P53355); assay: DSF thermal shift assay; type: binding; details: DAPK1; inhibitor 10 μM, protein 2 μM; read-out: ΔTm
T14 construct: purchased in-house DSF (thermal shift) panel per Fedorov et al
Experimental: as §1

CDC42BPA = molecular target: T15, CDC42BPA (Homo sapiens, UniProt Q5VT25); assay: DSF thermal shift assay; type: binding; details: CDC42BPA; inhibitor 10 μM, protein 2 μM; read-out: ΔTm
T15 construct: purchased in-house DSF (thermal shift) panel per Fedorov et al
Experimental: as §1

NEK2 = molecular target: T16, NEK2 (Homo sapiens, UniProt P51955); assay: DSF thermal shift assay; type: binding; details: NEK2; inhibitor 10 μM, protein 2 μM; read-out: ΔTm
T16 construct: purchased in-house DSF (thermal shift) panel per Fedorov et al
T16 sequence (P51955 whole entry): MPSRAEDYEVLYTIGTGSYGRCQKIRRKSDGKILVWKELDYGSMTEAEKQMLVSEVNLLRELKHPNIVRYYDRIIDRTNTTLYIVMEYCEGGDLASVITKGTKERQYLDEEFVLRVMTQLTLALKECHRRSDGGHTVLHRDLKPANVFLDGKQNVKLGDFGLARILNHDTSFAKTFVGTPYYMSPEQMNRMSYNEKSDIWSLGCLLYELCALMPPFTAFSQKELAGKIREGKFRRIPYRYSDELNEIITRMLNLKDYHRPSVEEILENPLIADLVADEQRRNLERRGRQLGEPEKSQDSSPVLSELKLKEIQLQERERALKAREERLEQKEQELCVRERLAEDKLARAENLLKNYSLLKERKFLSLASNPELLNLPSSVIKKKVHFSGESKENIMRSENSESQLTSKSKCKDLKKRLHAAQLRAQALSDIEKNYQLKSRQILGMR
Experimental: as §1

STK3 = molecular target: T17, STK3 (Homo sapiens, UniProt Q13188); assay: DSF thermal shift assay; type: binding; details: STK3; inhibitor 10 μM, protein 2 μM; read-out: ΔTm
T17 construct: purchased in-house DSF (thermal shift) panel per Fedorov et al
T17 sequence (Q13188 whole entry): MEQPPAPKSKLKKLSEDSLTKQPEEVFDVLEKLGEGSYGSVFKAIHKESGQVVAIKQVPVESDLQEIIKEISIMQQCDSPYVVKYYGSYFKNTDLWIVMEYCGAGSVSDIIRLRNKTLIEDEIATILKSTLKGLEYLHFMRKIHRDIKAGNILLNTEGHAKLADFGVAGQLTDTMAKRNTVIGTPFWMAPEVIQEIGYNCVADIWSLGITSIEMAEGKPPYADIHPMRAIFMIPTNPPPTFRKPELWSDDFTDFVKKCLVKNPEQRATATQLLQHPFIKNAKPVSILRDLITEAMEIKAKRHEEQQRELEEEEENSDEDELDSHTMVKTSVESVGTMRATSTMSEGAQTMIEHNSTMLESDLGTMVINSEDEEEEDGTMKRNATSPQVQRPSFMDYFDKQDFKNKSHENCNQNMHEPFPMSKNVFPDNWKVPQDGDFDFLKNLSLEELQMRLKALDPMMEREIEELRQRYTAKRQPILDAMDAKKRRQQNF
Experimental: as §1

EPHB3 = molecular target: T18, EPHB3 (Homo sapiens, UniProt P54753); assay: DSF thermal shift assay; type: binding; details: EPHB3; inhibitor 10 μM, protein 2 μM; read-out: ΔTm
T18 construct: purchased in-house DSF (thermal shift) panel per Fedorov et al
Experimental: as §1

STK10 = molecular target: T19, STK10 (Homo sapiens, UniProt O94804); assay: DSF thermal shift assay; type: binding; details: STK10; inhibitor 10 μM, protein 2 μM; read-out: ΔTm
T19 construct: purchased in-house DSF (thermal shift) panel per Fedorov et al
Experimental: as §1

RPS6K5 = molecular target: T20, RPS6K5 (Homo sapiens, UniProt O75582); assay: DSF thermal shift assay; type: binding; details: RPS6K5; inhibitor 10 μM, protein 2 μM; read-out: ΔTm
T20 construct: purchased in-house DSF (thermal shift) panel per Fedorov et al
Experimental: as §1

S6K2 = molecular target: T21, S6K2 (Homo sapiens, UniProt Q9UBS0); assay: HotSpot kinase assay (Reaction Biology); type: biochemical; details: apparent IC50; five-point; compound 2 triplicate, ± standard deviation
T21 construct: purchased Reaction Biology Corp
Experimental: (§2) The provided IC50 values were measured using the HotSpot^TM Kinase Profiling assay and conducted at Reaction Biology Corp. in their facilities in Malvern, PA, USA.

MAPKAPK2 = molecular target: T22, MAPKAPK2 (Homo sapiens, UniProt P49137); assay: HotSpot kinase assay (Reaction Biology); type: biochemical; details: five-point singlicate, max 5 μM
T22 construct: purchased in-house DSF (thermal shift) panel per Fedorov et al; IC50 follow-up at Reaction Biology Corp
Experimental: as §2

MAPKAPK3 = molecular target: T23, MAPKAPK3 (Homo sapiens, UniProt Q16644); assay: HotSpot kinase assay (Reaction Biology); type: biochemical; details: five-point singlicate, max 5 μM
T23 construct: purchased Reaction Biology Corp
T23 sequence (Q16644 whole entry): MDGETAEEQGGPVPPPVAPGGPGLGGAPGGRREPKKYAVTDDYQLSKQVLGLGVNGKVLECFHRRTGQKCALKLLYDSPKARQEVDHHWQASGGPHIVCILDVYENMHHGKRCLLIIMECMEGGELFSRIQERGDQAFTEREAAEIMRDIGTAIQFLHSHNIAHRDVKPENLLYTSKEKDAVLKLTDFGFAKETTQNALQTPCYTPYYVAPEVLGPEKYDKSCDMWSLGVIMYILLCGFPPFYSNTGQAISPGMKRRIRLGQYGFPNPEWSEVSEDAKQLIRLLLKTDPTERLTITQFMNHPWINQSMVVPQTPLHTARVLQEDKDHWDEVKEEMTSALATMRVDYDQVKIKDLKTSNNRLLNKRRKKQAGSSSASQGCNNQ
Experimental: as §2

FGFR4 = molecular target: T24, FGFR4 (Homo sapiens, UniProt P22455); assay: HotSpot kinase assay (Reaction Biology); type: biochemical; details: five-point singlicate
T24 construct: purchased Reaction Biology Corp
T24 sequence (P22455 22-802): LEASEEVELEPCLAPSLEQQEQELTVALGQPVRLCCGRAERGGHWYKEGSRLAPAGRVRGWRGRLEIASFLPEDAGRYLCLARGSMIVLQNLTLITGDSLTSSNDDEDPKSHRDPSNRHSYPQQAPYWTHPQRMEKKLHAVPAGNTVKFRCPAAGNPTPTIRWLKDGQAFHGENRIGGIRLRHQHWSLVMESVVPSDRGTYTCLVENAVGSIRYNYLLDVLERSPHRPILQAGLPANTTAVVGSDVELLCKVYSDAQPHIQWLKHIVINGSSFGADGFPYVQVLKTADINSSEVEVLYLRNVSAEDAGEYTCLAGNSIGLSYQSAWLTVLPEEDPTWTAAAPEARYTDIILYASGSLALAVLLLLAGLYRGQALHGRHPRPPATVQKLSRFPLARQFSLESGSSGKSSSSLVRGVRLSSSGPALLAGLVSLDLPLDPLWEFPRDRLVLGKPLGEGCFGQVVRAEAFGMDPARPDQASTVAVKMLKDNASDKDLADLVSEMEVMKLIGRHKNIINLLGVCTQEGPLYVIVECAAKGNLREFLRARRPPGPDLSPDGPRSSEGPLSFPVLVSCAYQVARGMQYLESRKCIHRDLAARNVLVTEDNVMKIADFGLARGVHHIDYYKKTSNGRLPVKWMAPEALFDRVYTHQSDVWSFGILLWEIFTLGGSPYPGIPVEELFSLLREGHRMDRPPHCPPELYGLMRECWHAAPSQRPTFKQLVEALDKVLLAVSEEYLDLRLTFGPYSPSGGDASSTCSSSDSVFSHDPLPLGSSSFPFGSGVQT
Experimental: as §2

TTK = molecular target: T25, TTK (Homo sapiens, UniProt P33981); assay: HotSpot kinase assay (Reaction Biology); type: biochemical; details: five-point singlicate, max 5 μM
T25 construct: purchased Reaction Biology Corp
T25 sequence (P33981 whole entry): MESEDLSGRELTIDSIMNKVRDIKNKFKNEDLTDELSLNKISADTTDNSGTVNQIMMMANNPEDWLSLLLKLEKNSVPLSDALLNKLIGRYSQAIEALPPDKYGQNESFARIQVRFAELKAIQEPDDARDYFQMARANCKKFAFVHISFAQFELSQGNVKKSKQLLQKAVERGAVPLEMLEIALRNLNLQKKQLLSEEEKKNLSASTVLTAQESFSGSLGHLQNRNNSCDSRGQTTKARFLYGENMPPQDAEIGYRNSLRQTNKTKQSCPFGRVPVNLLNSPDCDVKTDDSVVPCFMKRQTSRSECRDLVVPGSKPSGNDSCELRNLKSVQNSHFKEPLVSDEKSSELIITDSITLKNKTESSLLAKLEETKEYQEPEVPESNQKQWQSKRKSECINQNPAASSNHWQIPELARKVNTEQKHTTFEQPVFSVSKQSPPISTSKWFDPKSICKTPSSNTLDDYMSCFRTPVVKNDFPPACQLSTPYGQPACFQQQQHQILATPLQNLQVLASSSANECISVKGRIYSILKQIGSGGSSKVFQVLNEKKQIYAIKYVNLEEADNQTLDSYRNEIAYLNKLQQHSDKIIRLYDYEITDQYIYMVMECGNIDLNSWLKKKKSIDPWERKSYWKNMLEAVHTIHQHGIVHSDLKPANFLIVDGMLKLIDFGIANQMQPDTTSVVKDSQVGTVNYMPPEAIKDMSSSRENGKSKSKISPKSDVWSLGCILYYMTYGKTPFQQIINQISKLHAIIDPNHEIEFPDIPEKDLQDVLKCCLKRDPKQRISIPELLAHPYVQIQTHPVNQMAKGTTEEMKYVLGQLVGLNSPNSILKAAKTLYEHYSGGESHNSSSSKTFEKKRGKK
Experimental: as §2

S6K1 = molecular target: T26, S6K1 (Homo sapiens, UniProt P23443); assay: HotSpot kinase assay (Reaction Biology); type: biochemical
T26 construct: purchased Reaction Biology Corp
T26 sequence (P23443 whole entry): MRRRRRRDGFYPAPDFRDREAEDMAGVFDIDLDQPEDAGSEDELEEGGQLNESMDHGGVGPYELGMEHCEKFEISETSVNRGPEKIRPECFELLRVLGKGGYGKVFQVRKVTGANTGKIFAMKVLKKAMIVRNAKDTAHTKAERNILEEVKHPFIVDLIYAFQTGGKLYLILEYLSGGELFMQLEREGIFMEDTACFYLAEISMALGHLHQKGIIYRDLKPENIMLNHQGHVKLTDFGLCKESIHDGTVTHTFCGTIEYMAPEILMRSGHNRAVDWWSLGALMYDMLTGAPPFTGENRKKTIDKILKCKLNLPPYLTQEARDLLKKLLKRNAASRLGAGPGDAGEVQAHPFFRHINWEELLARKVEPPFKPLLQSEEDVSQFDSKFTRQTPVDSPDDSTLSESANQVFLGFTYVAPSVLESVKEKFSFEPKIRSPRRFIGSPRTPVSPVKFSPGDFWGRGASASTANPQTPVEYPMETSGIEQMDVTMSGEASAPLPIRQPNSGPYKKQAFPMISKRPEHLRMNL
Experimental: as §2

SMILES: CCc1cnc(Nc2nc(Cl)ccc2[N+](=O)[O-])nc1N1CCN(Cc2nc3cc(C(F)(F)F)ccc3[nH]2)CC1 [Compound 2]
- ΔTm at 10 µM (SLK): 1.9 °C
- ΔTm at 10 µM (MAPK6): 0.2 °C
- ΔTm at 10 µM (CAMKK2): 0.6 °C
- ΔTm at 10 µM (PAK1): -0.5 °C
- ΔTm at 10 µM (MERTK): -0.1 °C
- ΔTm at 10 µM (STK39): 0.6 °C
- ΔTm at 10 µM (CAMK4): 0.1 °C
- ΔTm at 10 µM (OSR1): 0.4 °C
- ΔTm at 10 µM (EPHA7): 0.5 °C
- ΔTm at 10 µM (WNK1): -0.9 °C
- ΔTm at 10 µM (DCAMKL1): 0.2 °C
- ΔTm at 10 µM (PLK4): 0.2 °C
- ΔTm at 10 µM (MAPK13): -0.6 °C
- ΔTm at 10 µM (DAPK1): -0.5 °C
- ΔTm at 10 µM (CDC42BPA): 0.3 °C
- ΔTm at 10 µM (NEK2): 0.1 °C
- ΔTm at 10 µM (STK3): -0.2 °C
- ΔTm at 10 µM (EPHB3): -0.9 °C
- ΔTm at 10 µM (STK10): 1.8 °C
- ΔTm at 10 µM (RPS6K5): 1.5 °C
- IC50 (S6K2): 22 ± 1.6 nM
- IC50 (MAPKAPK2): > 5 µM
- IC50 (MAPKAPK3): > 5 µM
- IC50 (FGFR4): 216 nM
- IC50 (TTK): > 5 µM
- IC50 (S6K1; five-point singlicate, max 5 μM): > 5 µM
- activity for S6K1 (S6K1; maximum tested compound concentration of 5 μM): inactive
